Test results reported in patent US20240374546A1, “USES AND METHODS FOR PROMOTING INCREASED MITOCHONDRIAL MASS AND FUNCTION” (Brightseed, Inc., priority 2022, published 2024).

Key:
[1] = Subcutaneous delivery of NCT to DIO mice; format: in vivo, mouse; settings: 2 weeks
Experimental: 12-week-old C57BL/6J DIO male mice were purchased from Jackson laboratory (cat #380050) and were fed with high fat diet (Research Diets, cat #D12492 60 kcal % fat). […] 14 week old mice were injected subcutaneously using sterile insulin syringes filled with DMSO or NCT (200 mg/kg of mouse body weight) bid for 2 weeks. For oral gavage, 14-week-old C57BL/6J DIO male mice were fed by oral gavage using a feeding needle attached to a sterile 1 ml syringe filled with 200 μL of methyl cellulose (MC, vehicle control) or 200 μL of NCT (200 mg/kg) dissolved in methyl cellulose twice a day for 2 weeks. […] For analysis all mice were sacrificed after 2 weeks of treatment.

TNFα mRNA [2] = test: qPCR mouse liver, TNFα mRNA; format: in vivo; settings: HFD+NCT vs HFD
Experimental: (§1) Total RNA was isolated from liver tissues and primary human hepatocytes using Trizol (Invitrogen). cDNA was amplified using 3 μg of total RNA using qScript cDNA SuperMix (Quanta BioSciences, Beverly, MA, USA). Quantitative real time PCR (RT-PCR) analysis was performed using SYBR® Select Master Mix (Applied Biosystems) and an ABI 7900HT thermal cycler (Applied Biosystems, Thermo Fisher Scientific). Ct values were normalized to 18s rRNA and are expressed as fold change over samples from mice fed NC or cultured human hepatocytes without NCT.

HSP60 mRNA = test: qPCR mouse liver, HSP60 mRNA; format: in vivo; settings: HFD+NCT vs HFD
Experimental: as §1

Sirt3 mRNA = test: qPCR mouse liver, Sirtuin3 mRNA; format: in vivo; settings: HFD+NCT vs HFD
Experimental: as §1

IL-6 mRNA = test: qPCR mouse liver, IL-6 mRNA; format: in vivo; settings: HFD+NCT vs HFD
Experimental: as §1

PPARGC1A mRNA = test: qPCR mouse liver, PPARGC1A mRNA; format: in vivo; settings: ten weeks of oral NCT
Experimental: as §1

PPARGC1A (PGC1α) = test: Western blot, mouse liver, PPARGC1A; format: in vivo; settings: ten weeks of oral NCT
Experimental: Mouse liver extracts were prepared by incubation in RIPA buffer (Invitrogen) containing protease inhibitors (Calbiochem, San Diego, CA). Protein was quantified by BCA assay (Thermo Scientific). Protein ([…] for cytochrome C) was separated on 12% or 16% Tri-Glycine gels (Invitrogen) and transferred to Immobilon P membrane (0.2 μm pore size, Millipore). After 1 hour in phosphate-buffered saline-Tween (PBST) with 3% milk, membranes were incubated with antibodies to PPARGC1A(PGC1α) (Cat #NBP1-04676, Novus, 1:1000), SDHA XP (Cat #11998, Cell Signaling 1:1000), or Cytochrome C (Cat #4280, Cell Signaling 1:500), followed by secondary antibody conjugated to horseradish peroxidase (1:5000, Jackson Immune or Cell Signaling). […] After detection, membrane was incubated with Ponceau S solution (Sigma) for 1 hr for normalization to loaded protein.

Sirtuin3 mRNA = test: qPCR primary human hepatocytes, Sirtuin3 mRNA; format: cell-based; settings: NCT 5, 15, 40 μM
Experimental: (§2) Experiments with primary human hepatocytes were performed by CN-Bio (Cambridge, UK). Briefly, primary human hepatocytes (PHHs), human Kupffer cells (HKs) and human stellate cells (HSCs) were seeded onto CN-Bio's PhysioMimix LC12 MPS culture plates at 6×10^5 cells for PHHs and 6×10^4 cells for HKs and HSCs in 1.6 ml of CN-Bio's HEP-lean media with 5% FCS. Throughout the experiment the cells were maintained at a flow rate of 1 μl/s. After 24 hours (Day 1) of seeding, the media was changed to HEP-lean media and the cells were incubated until day 4 to allow the cells to form microtissues. At day 4 post seeding, media was changed to HEP-fat media and treated with DMSO or NCT (5, 15, 40 μM). Media was replaced on days 6 and 8. Cells were harvested on day 10 for RNA extraction and culture media was collected for ELISA analysis.
as §1

[3] = Free fatty acid quantification in serum; format: in vivo, mouse; settings: HFD+NCT vs HFD, 10 weeks
Experimental: Blood samples were collected from dextrose injected mice and centrifuged to collect serum samples. The serum FFA level was measured according to manufacturer's instructions using a Free Fatty Acid Quantification Colorimetric/Fluorometric Kit (Cat #K612, BioVision, USA). Fold change was calculated by normalizing to values from mice fed NC.

VDAC1 = test: VDAC-1 immunostaining of liver sections; format: in vivo, mouse; settings: HFD+NCT vs HFD
Experimental: Frozen liver sections were permeabilized using 0.3% Triton-X and incubated in antigen retrieval solution (Antigen retrieval citrate, Biogenex) at sub-boiling temperature for 10 min. Subsequently, sections were incubated with blocking buffer containing 5% normal donkey serum (Jackson Immuno Research) followed by incubation overnight at 4° C. with mouse anti-HNF4α monoclonal antibody (1:800, Cat #PP-H1415-00, R&D Systems), rabbit polyclonal anti-VDAC antibody (1:400, cat #PA1-954A, Invitrogen) and cleaved caspase3 antibody (1:500, cat #9664, Cell Signaling). Sections were washed and incubated for 1 hour at room temperature with anti-mouse secondary antibody coupled with Alexa fluor 488 (1:400, Invitrogen) and antirabbit secondary antibody coupled with rhodamine red. Nuclei were visualized by counterstaining with DAPI (40,6-diamidino-2-phenylindole, Sigma Aldrich). Slides were mounted using fluorescence mounting medium and images were obtained at 40× magnification using an Olympus IX71 fluorescence microscope. Fluorescence intensity of HNF4α-stained nuclei and VDAC stained mitochondria was calculated using MetaMorph TL software (version 7.6.5.0, Olympus). Fold change was calculated by normalizing to values from mice fed NC.

palmitate-loaded cells = test: Fat clearance from palmitate-loaded cells; format: cell-based; settings: in vitro
TNFα mRNA [4] = test: qPCR primary human hepatocytes, TNFα mRNA; format: cell-based; settings: NCT 5, 15, 40 μM
Experimental: as §2, §1

[5] = Blood count analysis (Hemavet); format: in vivo, mouse; settings: HFD versus HFD+NCT
Experimental: Mice were anesthetized and 20 μL of whole blood was collected via retro-orbital bleeding in lithium heparin blood collection tubes and 20 different hematologic parameters were measured using a Hemavet 950 FS blood count analyzer (Drew Scientific Group).

total cellular NAD = test: Total NAD level in liver lysate; format: in vivo, mouse; settings: HFD+NCT vs HFD
Experimental: Total NAD level in liver lysate was analyzed according to manufacturer's instructions using a calorimetric NAD+/NADH assay kit (Cat #MET-5014, Cell Biolabs, Inc. USA)

[6] = previous two-week IP administration, obese mice; cited from earlier work
Sirt1 mRNA = test: qPCR mouse liver, Sirtuin1 mRNA; format: in vivo; settings: HFD+NCT vs HFD
Experimental: as §1

## O=C(/C=C/c1ccc(O)c(O)c1)NCCc1ccc(O)cc1 [NCT, N-transcaffeoyltyramine]
[1]; 200 mg/kg bid, vs DMSO
  liver color after subcutaneous NCT: No difference in liver color
[1]; 200 mg/kg, 2 doses per day, subcutaneous
  outcome of subcutaneous delivery: compound precipitation
TNFα mRNA [2]
  TNFα mRNA in mouse liver: significantly reduced
HSP60 mRNA
  HSP60 mRNA in mouse liver: greatly decreased
Sirt3 mRNA
  Sirt3 mRNA in mouse liver (effect of HFD): almost completely reversed
IL-6 mRNA
  IL-6 mRNA in mouse liver: significantly reduced
PPARGC1A mRNA
  PPARGC1A mRNA in mouse liver: increased
PPARGC1A (PGC1α)
  PPARGC1A protein in mouse liver: increased
Sirtuin3 mRNA
  Sirtuin3 mRNA in primary human hepatocytes: significant effect
[3]
  circulating free fatty acid (FFA): no difference
VDAC1
  VDAC1 expression (HFD-induced decrease): substantial reversal
palmitate-loaded cells
  fat clearance from palmitate-loaded cells: induced fat clearance
TNFα mRNA [4]
  TNFα mRNA in cultured human hepatocytes: decreased in a dose-responsive manner
[5]
  hematological analysis: no difference
Total cellular NAD
  total cellular NAD in liver: substantial increase
[6]
  body weight: no effect on body weight
  hepatic steatosis: decreased hepatic steatosis
Sirt1 mRNA
  Sirt1 mRNA in mouse liver (effect of HFD): almost completely reversed
